Reference: ChEMBL document CHEMBL4840322, “Synthesis and biological evaluation of novel coumarin derivatives in rhabdoviral clearance” (Eur J Med Chem, 2021)
The source made the active and inactive calls. The rule behind the calls is not given here.

Assays:
[1] = test system: Infectious hematopoietic necrosis virus; experiment: Inhibition of Infectious hematopoietic necrosis virus glycoprotein G assessed as antiviral activity at 25 uM measured by RT-qPCR method relative to control
[2] = test system: Infectious hematopoietic necrosis virus; experiment: Antiviral activity against Infectious hematopoietic necrosis virus infected in Fathead minnow EPC cells assessed as inhibition of G protein expression measured after 72 hrs by RT-qPCR method; format: functional, organism-based
[3] = test system: Infectious hematopoietic necrosis virus; experiment: Antiviral activity against Infectious hematopoietic necrosis virus infected in Fathead minnow EPC cells assessed as suppression of virus-induced cytopathic effect at 100 uM; format: functional, organism-based
[4] = test system: Infectious hematopoietic necrosis virus; experiment: Antiviral activity against Infectious hematopoietic necrosis virus infected in Fathead minnow EPC cells at 25 uM preincubated for 1 to 4 hrs followed by compound washout and infected to EPC cells and measured after 72 hrs by RT-qPCR assay; format: functional, organism-based; conditions: time 1-4 hrs
[5] = test system: Infectious hematopoietic necrosis virus; experiment: Antiviral activity against Infectious hematopoietic necrosis virus infected in Rainbow trout fish assessed as decrease of viral proliferation in fish kidney ip measured after 4 days; format: functional, organism-based; conditions: time 4.0 day
[6] = test system: Infectious hematopoietic necrosis virus; experiment: Antiviral activity against Infectious hematopoietic necrosis virus infected in Fathead minnow EPC cells assessed as inhibition of matrix protein gene expression at 0.1 to 100 uM measured after 72 hrs by RT-qPCR method relative to control; format: functional; parameters: scale not given: the % may be the effect or the level left; conditions: dose 0.1-100 µM
[7] = test system: Infectious hematopoietic necrosis virus; experiment: Antiviral activity against Infectious hematopoietic necrosis virus infected in Fathead minnow EPC cells assessed as decrease in virus-induced apoptosis by measuring caspase-8 activity at 25 uM measured after 72 hrs by Caspase activity assay relative to control; format: functional; parameters: scale not given: the % may be the effect or the level left
[8] = test system: Infectious hematopoietic necrosis virus; experiment: Antiviral activity against Infectious hematopoietic necrosis virus infected in Rainbow trout fish assessed as decrease of viral proliferation in fish spleen ip measured after 4 days; format: functional, organism-based; conditions: time 4.0 day
[9] = test system: Infectious hematopoietic necrosis virus; experiment: Antiviral activity against Infectious hematopoietic necrosis virus infected in Fathead minnow EPC cells assessed as inhibition of polymerase protein gene expression at 0.1 to 100 uM measured after 72 hrs by RT-qPCR method relative to control; format: functional; parameters: scale not given: the % may be the effect or the level left; conditions: dose 0.1-100 µM
[10] = test system: Infectious hematopoietic necrosis virus; experiment: Antiviral activity against Infectious hematopoietic necrosis virus infected in Rainbow trout fish assessed as decrease of mortality rate ip measured after 4 days; format: functional, organism-based; conditions: time 4.0 day
[11] = Induction of apoptosis in Fathead minnow EPC cells assessed as early apoptotic cells measured after 72 hrs by Annexin V/PI staining based flowcytometry method (reference value: 3.8%); format: functional, Pimephales promelas
[12] = Cytotoxicity against Fathead minnow EPC cells at 25 uM; format: cell-based; conditions: pimephales promelas
[13] = test system: Infectious hematopoietic necrosis virus; experiment: Antiviral activity against Infectious hematopoietic necrosis virus infected in Fathead minnow EPC cells assessed as decrease in virus-induced apoptosis by measuring changes in cell morphology at 10 uM measured by ultrastructural analysis; format: functional, organism-based
[14] = Induction of apoptosis in Fathead minnow EPC cells assessed as necrotic cells measured after 72 hrs by Annexin V/PI staining based flowcytometry method (reference value: 0.29%); format: functional, Pimephales promelas
[15] = test system: Infectious hematopoietic necrosis virus; experiment: Antiviral activity against Infectious hematopoietic necrosis virus infected in Fathead minnow EPC cells assessed as decrease in virus-induced apoptosis by measuring formation of few apoptotic bodies in cells at 100 uM measured after 72 hrs by Flowcytometry assay; format: functional, organism-based
[16] = test system: Micropterus salmoides rhabdovirus; experiment: Antiviral activity against micropterus salmoides rhabdo-virus infected in Fat head minnow EPC cells assessed as inhibition of N protein gene expression by RT-qPCR method relative to control; format: functional, organism-based
[17] = test system: Micropterus salmoides rhabdovirus; experiment: Antiviral activity against micropterus salmoides rhabd-ovirus infected in Fat head minnow EPC cells assessed as inhibition of N protein gene expression at 0.1 to 100 uM by RT-qPCR method relative to control; format: functional; parameters: scale not given: the % may be the effect or the level left; conditions: dose 0.1-100 µM
[18] = test system: Sprivivirus cyprinus; experiment: Antiviral activity against spring viremia of carp virus infected in Fat head minnow EPC cells assessed as inhibition of N protein gene expression by RT-qPCR method relative to control; format: functional, organism-based
[19] = test system: Infectious hematopoietic necrosis virus; experiment: Antiviral activity against Infectious hematopoietic necrosis virus infected in Fathead minnow EPC cells assessed as reduction of virus titre values at 0.25 to 25 uM measured after 72 to 96 hrs; format: functional, organism-based; conditions: dose 0.25-25 µM, time 72-96 hrs
[20] = test system: Infectious hematopoietic necrosis virus; experiment: Antiviral activity against Infectious hematopoietic necrosis virus infected in Rainbow trout fish assessed as decrease of viral proliferation in fish brain ip measured after 4 days; format: functional, organism-based; conditions: time 4.0 day
[21] = test system: Infectious hematopoietic necrosis virus; experiment: Antiviral activity against Infectious hematopoietic necrosis virus infected in Fathead minnow EPC cells assessed as decrease in virus-induced apoptosis by measuring necrotic cells measured after 72 hrs by Annexin V/PI staining based flowcytometry method (reference value: 0.29%); format: functional; parameters: scale not given: the % may be the effect or the level left
[22] = test system: Infectious hematopoietic necrosis virus; experiment: Antiviral activity against Infectious hematopoietic necrosis virus infected in Fathead minnow EPC cells assessed as decrease in virus-induced apoptosis by measuring caspase-3 activity at 25 uM measured after 72 hrs by Caspase activity assay relative to control; format: functional; parameters: scale not given: the % may be the effect or the level left
[23] = Induction of apoptosis in Fathead minnow EPC cells assessed as viable cells measured after 72 hrs by Annexin V/PI staining based flowcytometry method (reference value: 94%); format: functional, Pimephales promelas
[24] = test system: Infectious hematopoietic necrosis virus; experiment: Antiviral activity against Infectious hematopoietic necrosis virus infected in Fathead minnow EPC cells assessed as decrease in virus-induced apoptosis by measuring late apoptotic cells measured after 72 hrs by Annexin V/PI staining based flowcytometry method (reference value: 1.95%); format: functional; parameters: scale not given: the % may be the effect or the level left
[25] = test system: Sprivivirus cyprinus; experiment: Antiviral activity against spring viremia of carp virus infected in Fat head minnow EPC cells assessed as inhibition of N protein gene expression at 0.1 to 100 uM by RT-qPCR method relative to control; format: functional; parameters: scale not given: the % may be the effect or the level left; conditions: dose 0.1-100 µM
[26] = Cytotoxicity against Grass carp GCO cells at 25 uM; format: cell-based; conditions: ctenopharyngodon idellus
[27] = test system: Infectious hematopoietic necrosis virus; experiment: Antiviral activity against Infectious hematopoietic necrosis virus infected in Fathead minnow EPC cells assessed as inhibition of virus-cell recognition at 25 uM measured after 30 mins by RT-qPCR method; format: functional, organism-based
[28] = test system: Sprivivirus cyprinus; experiment: Antiviral activity against spring viremia of carp virus infected in Fathead minnow EPC cells assessed as reduction of viral titre value measured after 48 to 96 hrs; format: functional, organism-based; conditions: time 48-96 hrs
[29] = test system: Micropterus salmoides rhabdovirus; experiment: Antiviral activity against micropterus salmoides rhabdo-virus infected in Grass carp GCO cells assessed as reduction of viral titre value measured after 48 to 96 hrs; format: functional, organism-based; conditions: time 48-96 hrs
[30] = test system: Infectious hematopoietic necrosis virus; experiment: Antiviral activity against Infectious hematopoietic necrosis virus infected in Fathead minnow EPC cells assessed as inhibition of phospho protein gene expression at 0.1 to 100 uM measured after 72 hrs by RT-qPCR method relative to control; format: functional; parameters: scale not given: the % may be the effect or the level left; conditions: dose 0.1-100 µM
[31] = test system: Infectious hematopoietic necrosis virus; experiment: Antiviral activity against Infectious hematopoietic necrosis virus infected in Fathead minnow EPC cells assessed as decrease in virus-induced apoptosis by measuring early apoptotic cells measured after 72 hrs by Annexin V/PI staining based flowcytometry method (reference value: 3.8%); format: functional; parameters: scale not given: the % may be the effect or the level left
[32] = test system: Infectious hematopoietic necrosis virus; experiment: Antiviral activity against Infectious hematopoietic necrosis virus infected in Fathead minnow EPC cells assessed as decrease in virus-induced apoptosis by measuring viable cells measured after 72 hrs by Annexin V/PI staining based flowcytometry method (reference value: 94%); format: functional
[33] = test system: Infectious hematopoietic necrosis virus; experiment: Antiviral activity against Infectious hematopoietic necrosis virus infected in Fathead minnow EPC cells assessed as decrease in virus-induced apoptosis by measuring appearance of normal sized nuclei in cells at 100 uM measured after 72 hrs by Flowcytometry assay; format: functional, organism-based
[34] = test system: Infectious hematopoietic necrosis virus; experiment: Antiviral activity against Infectious hematopoietic necrosis virus infected in Fathead minnow EPC cells assessed as decrease in virus-induced apoptosis by measuring caspase-9 activity at 25 uM measured after 72 hrs by Caspase activity assay relative to control; format: functional; parameters: scale not given: the % may be the effect or the level left
[35] = Induction of apoptosis in Fathead minnow EPC cells assessed as late apoptotic cells measured after 72 hrs by Annexin V/PI staining based flowcytometry method (reference value: 1.95%); format: functional, Pimephales promelas
[36] = test system: Infectious hematopoietic necrosis virus; experiment: Antiviral activity against Infectious hematopoietic necrosis virus infected in Fathead minnow EPC cells assessed as inhibition of nucleoprotein gene expression at 0.1 to 100 uM measured after 72 hrs by RT-qPCR method relative to control; format: functional; parameters: scale not given: the % may be the effect or the level left; conditions: dose 0.1-100 µM

CCCOc1ccc2c(C)cc(=O)oc2c1
inhibition [1]: -1.75%

Cc1cc(=O)oc2cc(OCCCCCCn3ccnc3)ccc12
inhibition [1]: 82.1%
IC50 [2]: 7.63 µM

C=C(C)COc1cc(=O)oc2ccccc12
inhibition [1]: 9.47%

O=c1ccc2ccc(OCCCCCCCCn3cnc4ccccc43)cc2o1
inhibition [1]: 46.1%

C=CCOc1cc(=O)oc2ccccc12
inhibition [1]: 2.46%

NC(=O)c1ncn([C@@H]2O[C@H](CO)[C@@H](O)[C@H]2O)n1
inhibition [1]: 99.1%

CCCOc1ccc2ccc(=O)oc2c1
inhibition [1]: 5.73%

COc1cc(=O)oc2ccccc12
inhibition [1]: 19.5%

C=C(C)COc1ccc2ccc(=O)oc2c1
inhibition [1]: 14%

O=c1ccc2ccc(OCCCCCCn3cncn3)cc2o1
inhibition [1]: 39.2%

COc1ccc2ccc(=O)oc2c1
inhibition [1]: 10.8%

O=c1ccc2ccc(OCCCCCCSc3cccc(O)c3)cc2o1
inhibition [1]: 13.8%

O=c1ccc2ccc(OCCCCn3cnc4ccccc43)cc2o1
inhibition [1]: 35.1%

Cc1cc(=O)oc2cc(OCCCCCCn3ccnc3C)ccc12
inhibition [1]: 89.5%
IC50 [2]: 6.34 µM

O=c1ccc2ccc(OCCCCCCN3CCCCC3)cc2o1
inhibition [1]: 5.32%

O=c1ccc2ccc(OCCCCBr)cc2o1
inhibition [1]: 2.59%

Nc1ccccc1SCCCCCCOc1ccc2ccc(=O)oc2c1
inhibition [1]: 49.3%

Cc1cn(CCCCCCOc2ccc3c(C)cc(=O)oc3c2)cn1
inhibition [1]: 65.1%

O=c1ccc2ccc(OCCBr)cc2o1
inhibition [1]: 0.13%

Cc1cc(=O)oc2cc(OCCCCCCn3cncn3)ccc12
inhibition [1]: 25.2%

CCCOc1cc(=O)oc2ccccc12
inhibition [1]: 9.48%

Cc1cc(=O)oc2cc(OCCCCCCBr)ccc12
inhibition [1]: -2.34%

COc1ccc2c(C)cc(=O)oc2c1
inhibition [1]: 2.13%

O=c1ccc2ccc(OCCCBr)cc2o1
inhibition [1]: -8.24%

O=c1ccc2ccc(OCCn3cnc4ccccc43)cc2o1
inhibition [1]: 5.58%

O=c1ccc2ccc(OCCCn3cnc4ccccc43)cc2o1
inhibition [1]: 27.2%

O=c1ccc2ccc(OCCCCCCn3cnc4ccccc43)cc2o1
Activity [3]: Active
Activity [4]: inactive
Activity [5]: Active
Activity [6]: >95%
Activity [7]: 98%
Activity [8]: Active
Activity [9]: >95%
inhibition [1]: 99.2%
Activity [10]: Active
IC50 [2]: 2.96 µM
Activity [11]: 2.35%
Activity [12]: Non-Toxic
Activity [13]: Active
Activity [14]: 0.4%
Activity [15]: Active
IC50 [16]: 2.12 µM
Activity [17]: 99.08%
IC50 [18]: 1.68 µM
Activity [19]: Active
Activity [20]: Active
Activity [21]: 0.26%
Activity [22]: 383%
Activity [23]: 95.1%
Activity [24]: 2.55%
Activity [25]: 97.86%
Activity [26]: Non-Toxic
Activity [27]: inactive
Activity [28]: Active
Activity [29]: Active
Activity [30]: >95%
Activity [31]: 3.47%
Activity [32]: 93.7%
Activity [33]: Active
Activity [34]: 50%
Activity [35]: 2.2%
Activity [36]: >95%

CCCCOc1ccc2ccc(=O)oc2c1
inhibition [1]: 22%

C=C(C)COc1ccc2c(C)cc(=O)oc2c1
inhibition [1]: 9.37%

C=CCOc1ccc2ccc(=O)oc2c1
inhibition [1]: -5.86%

CCCCOc1cc(=O)oc2ccccc12
inhibition [1]: 14.5%

Cc1cc(=O)oc2cc(OCCCCCCn3cnc4ccccc43)ccc12
inhibition [1]: 94.1%
IC50 [2]: 4.76 µM

CCCCOc1ccc2c(C)cc(=O)oc2c1
inhibition [1]: -4.37%
